# Results: patent publication EP0500835B1, “A NOVEL QUINOLONE CARBOXYLIC ACID DERIVATIVE” (DAEWOONG PHARMACEUTICAL CO., LTD., priority 1990, dated 1992)
# Read-outs that look alike come from different tables or passages of the source.
# Key:
# Type in all cases: cell-based
# [1] = system: Staphylococcus aureus 697E; experiment: Antibacterial activity for MRSA; conditions: Staphylococcus aureus 697E (MRSA)
# Method: (§1) The compound of example 2 was orally administered to determine the LD50 for a group of male mice. […] The antibacterial activity for MRSA(Methicillin Resistant Staphyloccocus Aureus) was tested by the compound of example 2.
# [2] = system: Staphylococcus aureus 706E; experiment: Antibacterial activity for MRSA; conditions: Staphylococcus aureus 706E (MRSA)
# Method: as §1
# [3] = system: Staphylococcus aureus 708E; experiment: Antibacterial activity for MRSA; conditions: Staphylococcus aureus 708E (MRSA)
# Method: as §1
# [4] = system: Staphylococcus aureus 695E; experiment: Antibacterial activity for MRSA; conditions: Staphylococcus aureus 695E (MRSA)
# Method: as §1
# [5] = system: Staphylococcus aureus 256E; experiment: Antibacterial activity for MRSA; conditions: Staphylococcus aureus 256E (MRSA)
# Method: as §1
# [6] = system: Saphylococcus aureus 692E; experiment: Antibacterial activity for MRSA; conditions: Saphylococcus aureus 692E (MRSA)
# Method: as §1
# [7] = system: Staphylococcus aureus 711E; experiment: Antibacterial activity for MRSA; conditions: Staphylococcus aureus 711E (MRSA)
# Method: as §1
# [8] = system: Staphylococcus aureus 693E; experiment: Antibacterial activity for MRSA; conditions: Staphylococcus aureus 693E (MRSA)
# Method: as §1
# [9] = system: Staphylococcus aureus 707E; experiment: Antibacterial activity for MRSA; conditions: Staphylococcus aureus 707E (MRSA)
# Method: as §1
# [10] = system: Staphylococcus aureus 208E; experiment: Antibacterial activity for MRSA; conditions: Staphylococcus aureus 208E (MRSA)
# Method: as §1
# [11] = system: Staphylococcus aureus 121E; experiment: Antibacterial activity for MRSA; conditions: Staphylococcus aureus 121E (MRSA)
# Method: as §1
# [12] = system: Staphylococcus aureus 705E; experiment: Antibacterial activity for MRSA; conditions: Staphylococcus aureus 705E (MRSA)
# Method: as §1
# [13] = system: Staphylococcus aureus 703E; experiment: Antibacterial activity for MRSA; conditions: Staphylococcus aureus 703E (MRSA)
# Method: as §1
# [14] = system: Staphylococcus aureus 701E; experiment: Antibacterial activity for MRSA; conditions: Staphylococcus aureus 701E (MRSA)
# Method: as §1
# [15] = system: Staphylococcus aureus 690E; experiment: Antibacterial activity for MRSA; conditions: Staphylococcus aureus 690E (MRSA)
# Method: as §1
# [16] = system: Staphylococcus aureus 694E; experiment: Antibacterial activity for MRSA; conditions: Staphylococcus aureus 694E (MRSA)
# Method: as §1
# [17] = system: Staphylococcus aureus 88 E; experiment: Antibacterial activity for MRSA; conditions: Staphylococcus aureus 88 E (MRSA)
# Method: as §1
# [18] = system: Staphylococcus aureus 714E; experiment: Antibacterial activity for MRSA; conditions: Staphylococcus aureus 714E (MRSA)
# Method: as §1
# [19] = system: Staphylococcus aureus 752E; experiment: Antibacterial activity for MRSA; conditions: Staphylococcus aureus 752E (MRSA)
# Method: as §1
# S. faecium MD 86 = experiment: In vitro antibacterial activity, MIC by agar dilution method; conditions: Enterococcus faecium
# Method: (§2) The typical examples of the present compounds were tested for antimicrobial activity in vitro against twenty strains of Gram-positive and Gram-negative microorganisms.
# (§3) The numerals in the table 1 show minimum inhibitory concentrations(MIC in µg/ml). The minimum inhibitory concentrations were determined according to the agar dilution method recommended by Japan Society of Chemotherapy[Chemotherapy., 29, 76 (1981)].
# E. coli 1507E = experiment: as above; conditions: Escherichia coli, read-out: In vitro Antibacterial Activity, MIC
# Method: as §2, §3
# E. coli DC 2 = experiment: as above; conditions: Escherichia coli
# Method: as §2, §3
# S. aureus 503 = experiment: as above; conditions: Staphylococcus aureus, 503, read-out: In vitro Antibacterial Activity, MIC
# Method: as §2, §3
# P. aeruginosa 1592E = experiment: as above; conditions: Pseudomonas aeruginosa, 1592E, read-out: In vitro Antibacterial Activity, MIC
# Method: as §2, §3
# S. aureus 285 = experiment: as above; conditions: Staphylococcus aureus, 285, read-out: In vitro Antibacterial Activity, MIC
# Method: as §2, §3
# P. aeruginosa 1771M = experiment: as above; conditions: Pseudomonas aeruginosa, read-out: In vitro Antibacterial Activity, MIC
# Method: as §2, §3
# P. aeruginosa 9027 = experiment: as above
# Method: as §2, §3
# S. pyogenes A 308 = experiment: as above; conditions: Streptococcus pyogenes
# Method: as §2, §3
# K. oxytoca 1082E = experiment: as above; conditions: Klebsiella oxytoca, read-out: In vitro Antibacterial Activity, MIC
# Method: as §2, §3
# E. coli DC 0 = experiment: as above; conditions: Escherichia coli, DC0, read-out: In vitro Antibacterial Activity, MIC
# Method: as §2, §3
# P. aeruginosa 1771 = experiment: as above; conditions: Pseudomonas aeruginosa, 1771, read-out: In vitro Antibacterial Activity, MIC
# Method: as §2, §3
# E. coli TEM = experiment: as above; conditions: Escherichia coli, read-out: In vitro Antibacterial Activity, MIC
# Method: as §2, §3
# S. pyogenes A 77 = experiment: as above; conditions: Streptococcus pyogenes, A77, read-out: In vitro Antibacterial Activity, MIC
# Method: as §2, §3
# S. aureus SG 511 = experiment: as above; conditions: Staphylococcus aureus, SG511, read-out: In vitro Antibacterial Activity, MIC
# Method: as §2, §3
# E. cloacae 1321E = experiment: as above; conditions: Enterobacter cloacae, 1321E, read-out: In vitro Antibacterial Activity, MIC
# Method: as §2
# (§4) The minimum inhibitory concentrations were determined according to the agar dilution method recommended by Japan Society of Chemotherapy[Chemotherapy., 29, 76 (1981)].
# S. typhimurium = experiment: as above; conditions: Salmonella enterica, TYPHIMURIUM, read-out: In vitro Antibacterial Activity, MIC
# Method: as §2, §4
# K. aerogenes 1522E = experiment: as above; conditions: Klebsiella aerogenes, 1522E, read-out: In vitro Antibacterial Activity, MIC
# Method: as §2, §4
# E. coli O 55 = experiment: as above; conditions: Escherichia coli, O55, read-out: In vitro Antibacterial Activity, MIC
# Method: as §2, §4
# E. cloacae P99 = experiment: as above; conditions: Enterobacter cloacae, P99, read-out: In vitro Antibacterial Activity, MIC
# Method: as §2, §4
# [20] = MD86, read-out: In vitro Antibacterial Activity, MIC
# [21] = DC2, read-out: In vitro Antibacterial Activity, MIC
# [22] = Pseudomonas aeruginosa, 9027, read-out: In vitro Antibacterial Activity, MIC
# [23] = A308, read-out: In vitro Antibacterial Activity, MIC
smiles,measurement,setting,value
"O=C(O)c1cn(C2CC2)c2cc(N3CCNCC3)c(F)cc2c1=O [CIP, Ciprofloxacin, reference compound]",Antibacterial Activity for MRSA,[1],0.195 µg/mL
same,Antibacterial Activity for MRSA,[2],0.391 µg/mL
same,Antibacterial Activity for MRSA,[3],0.098 µg/mL
same,Antibacterial Activity for MRSA,[4],0.391 µg/mL
same,Antibacterial Activity for MRSA,[5],0.391 µg/mL
same,Antibacterial Activity for MRSA,[6],0.195 µg/mL
same,Antibacterial Activity for MRSA,[7],0.098 µg/mL
same,Antibacterial Activity for MRSA,[8],0.391 µg/mL
same,Antibacterial Activity for MRSA,[9],0.391 µg/mL
same,Antibacterial Activity for MRSA,[10],0.195 µg/mL
same,Antibacterial Activity for MRSA,[11],0.391 µg/mL
same,Antibacterial Activity for MRSA,[12],0.391 µg/mL
same,Antibacterial Activity for MRSA,[13],0.195 µg/mL
same,Antibacterial Activity for MRSA,[14],0.391 µg/mL
same,Antibacterial Activity for MRSA,[15],0.195 µg/mL
same,Antibacterial Activity for MRSA,[16],0.391 µg/mL
same,Antibacterial Activity for MRSA,[17],0.391 µg/mL
same,Antibacterial Activity for MRSA,[18],0.195 µg/mL
same,Antibacterial Activity for MRSA,[19],0.195 µg/mL
same,MIC,"S. faecium MD 86; MD86, S. faecium MD 86, agar dilution method, read-out: In vitro Antibacterial Activity, MIC",0.781 µg/mL
same,MIC,"E. coli 1507E; E. coli 1507E, agar dilution method",0.049 µg/mL
same,MIC,"E. coli DC 2; DC2, E. coli DC 2, agar dilution method, read-out: In vitro Antibacterial Activity, MIC",0.098 µg/mL
same,MIC,S. aureus 503,0.391 µg/mL
same,MIC,P. aeruginosa 1592E,0.195 µg/mL
same,MIC,S. aureus 285,0.195 µg/mL
same,MIC,"P. aeruginosa 1771M; P. aeruginosa 1771M, agar dilution method",0.049 µg/mL
same,MIC,"P. aeruginosa 9027; Pseudomonas aeruginosa, P. aeruginosa 9027, agar dilution method, read-out: In vitro Antibacterial Activity, MIC",0.098 µg/mL
same,MIC,"S. pyogenes A 308; A308, S. pyogenes A 308, agar dilution method, read-out: In vitro Antibacterial Activity, MIC",1.56 µg/mL
same,MIC,"K. oxytoca 1082E; K. oxytoca 1082E, agar dilution method",0.002 µg/mL
same,MIC,E. coli DC 0,0.195 µg/mL
same,MIC,P. aeruginosa 1771,0.195 µg/mL
same,MIC,"E. coli TEM; E. coli TEM, agar dilution method",0.098 µg/mL
same,MIC,S. pyogenes A 77,0.195 µg/mL
same,MIC,S. aureus SG 511,0.195 µg/mL
"CSCC1CCN(c2cc3c(cc2F)c(=O)c(C(=O)O)cn3C2CC2)C1 (stereo not shown) [Example 1, 1-cyclopropyl-6-fluoro-7-(3-methylthiomethylpyrrolidinyl)-1,4-dihydro-4-oxo-3-quinolinecarboxylic acid]",MIC,E. cloacae 1321E,0.195 µg/mL
same,MIC,S. typhimurium,0.195 µg/mL
same,MIC,K. aerogenes 1522E,0.391 µg/mL
same,MIC,E. coli O 55,0.025 µg/mL
same,MIC,E. cloacae P99,0.195 µg/mL
same,MIC,S. faecium MD 86; [20],0.781 µg/mL
same,MIC,E. coli 1507E; 1507E,1.56 µg/mL
same,MIC,E. coli DC 2; [21],0.781 µg/mL
same,MIC,S. aureus 503,0.025 µg/mL
same,MIC,P. aeruginosa 1592E,1.56 µg/mL
same,MIC,S. aureus 285,0.025 µg/mL
same,MIC,P. aeruginosa 1771M; 1771M,0.391 µg/mL
same,MIC,P. aeruginosa 9027; [22],1.56 µg/mL
same,MIC,S. pyogenes A 308; [23],1.56 µg/mL
same,MIC,K. oxytoca 1082E; 1082E,0.098 µg/mL
same,MIC,E. coli DC 0,3.12 µg/mL
same,MIC,P. aeruginosa 1771,0.781 µg/mL
same,MIC,E. coli TEM,0.391 µg/mL
same,MIC,S. pyogenes A 77,0.781 µg/mL
same,MIC,S. aureus SG 511,0.025 µg/mL
"CSCC1CCN(c2c(F)c(F)c3c(=O)c(C(=O)O)cn(C4CC4)c3c2F)C1 (stereo not shown) [Example 3, 1-cyclpropyl-5,6,8-trifluoro-7-(3-methylthiomethylpyrrolidinyl)-1,4-dihydro-4-oxo-3-quinolinecarboxylic acid]",MIC,E. cloacae 1321E,0.391 µg/mL
same,MIC,S. typhimurium,0.391 µg/mL
same,MIC,K. aerogenes 1522E,0.781 µg/mL
same,MIC,E. coli O 55,0.195 µg/mL
same,MIC,E. cloacae P99,0.391 µg/mL
same,MIC,S. faecium MD 86; [20],0.781 µg/mL
same,MIC,E. coli 1507E; 1507E,3.12 µg/mL
same,MIC,E. coli DC 2; [21],3.12 µg/mL
same,MIC,S. aureus 503,0.007 µg/mL
same,MIC,P. aeruginosa 1592E,3.12 µg/mL
same,MIC,S. aureus 285,0.013 µg/mL
same,MIC,P. aeruginosa 1771M; 1771M,1.56 µg/mL
same,MIC,P. aeruginosa 9027; [22],3.12 µg/mL
same,MIC,S. pyogenes A 308; [23],0.781 µg/mL
same,MIC,K. oxytoca 1082E; 1082E,0.098 µg/mL
same,MIC,E. coli DC 0,6.25 µg/mL
same,MIC,P. aeruginosa 1771,1.56 µg/mL
same,MIC,E. coli TEM,3.12 µg/mL
same,MIC,S. pyogenes A 77,1.56 µg/mL
same,MIC,S. aureus SG 511,0.008 µg/mL
"CSCC1CCN(c2c(F)c(N)c3c(=O)c(C(=O)O)cn(C4CC4)c3c2F)C1 (stereo not shown) [Example 9, 1-cyclopropyl-5-amino-6,8-difluoro-7-(3-methylthiomethylpyrrolidinyl)-1,4-dihydro-4-oxo-3-quinolinecarboxylic acid]",MIC,E. cloacae 1321E,0.049 µg/mL
same,MIC,S. typhimurium,0.049 µg/mL
same,MIC,K. aerogenes 1522E,3.12 µg/mL
same,MIC,E. coli O 55,0.013 µg/mL
same,MIC,E. cloacae P99,0.049 µg/mL
same,MIC,S. faecium MD 86; [20],1.2 µg/mL
same,MIC,E. coli 1507E; 1507E,0.025 µg/mL
same,MIC,E. coli DC 2; [21],0.195 µg/mL
same,MIC,S. aureus 503,0.007 µg/mL
same,MIC,P. aeruginosa 1592E,3.12 µg/mL
same,MIC,S. aureus 285,0.025 µg/mL
same,MIC,P. aeruginosa 1771M; 1771M,0.781 µg/mL
same,MIC,P. aeruginosa 9027; [22],3.12 µg/mL
same,MIC,S. pyogenes A 308; [23],0.195 µg/mL
same,MIC,K. oxytoca 1082E; 1082E,1.56 µg/mL
same,MIC,E. coli DC 0,3.12 µg/mL
same,MIC,P. aeruginosa 1771,1.56 µg/mL
same,MIC,E. coli TEM,0.025 µg/mL
same,MIC,S. pyogenes A 77,0.391 µg/mL
same,MIC,S. aureus SG 511,0.004 µg/mL
